{
  "source": "patent US5460829A",
  "about": "“Pharmaceutical compositions based on ebastine or analogues thereof” (Rhone-Poulenc Rorer S.A., priority 1991, dated 1995)",
  "key": {"[1]": {"assay": "Water solubility at pH 2", "format": "physicochemical"}, "[2]": {"assay": "Bioavailability of solid form", "format": "in vivo", "settings": "formulated in solid form"}, "[3]": {"assay": "Dissolution of the active principle in aqueous/acidic medium", "format": "physicochemical", "settings": "oral administration"}},
  "data": [
    {"compound": "CC(C)(C)c1ccc(C(=O)CCCN2CCC(OC(c3ccccc3)c3ccccc3)CC2)cc1", "note": "[compound of formula (I) lactate]", "values": [
      {"measurement": "solubility", "setting": "[1]; water, in the form of the lactate, pH 2, read-out: optimum solubility", "value": 800, "unit": "µg/mL"}
    ]},
    {"compound": "CC(C)(C)c1ccc(C(=O)CCCN2CCC(OC(c3ccccc3)c3ccccc3)CC2)cc1", "note": "[compound of formula (I), 4-diphenylmethoxy-1-[3-(4-tert-butylbenzoyl)propyl]piperidine]", "values": [
      {"measurement": "water solubility", "setting": "[1]; basic non-salified form, relative to the lactate", "value": "even lower"},
      {"measurement": "bioavailability", "setting": "[2]", "value": "very mediocre"},
      {"measurement": "dissolution time in the aqueous medium of the stomach", "setting": "[3]", "value": "very long"}
    ]}
  ]
}
